One compound from PMC12362796, “Bilirubin Targeting WNK1 to Alleviate NLRP3‐Mediated Neuroinflammation” (Advanced Science, 2025) can be followed below.

For assay [1], the system named is WNK1 phosphorylation at Thr58. The assay is described as follows: Western blotting of WNK1 phosphorylation in cochlear nucleus. The following applies: mouse cochlear nuclei, 30 min. The format is cell-based. The protocol:
To validate these findings, SH‐SY5Y cells were incubated in a serum‐free medium with bilirubin (6 µM) or an equivalent amount of DMSO as the control, followed by protein denaturation at different temperatures (Figure 1A).
C57BL/6 mice at postnatal day 10 (P10) were euthanized on ice, and their cochlear nuclei were dissected and incubated in artificial cerebrospinal fluid (ACSF), with or without 3 µM bilirubin, followed by rapid freezing in liquid nitrogen. The ACSF composition was 124 mM NaCl, 5 mM KCl, 1.2 mM KH2PO4, 1.3 mM MgCl2, 2.4 mM CaCl2, 24 mM NaHCO3, and 10 mM glucose (pH 7.4).
Cells or tissues were lysed by grinding in RIPA buffer (cat. no. PC101; Epizyme Biotech) supplemented with a protease inhibitor cocktail (cat. no. 5872S; Cell Signaling Technology) at 4 °C. The lysate was subsequently centrifuged at 16000 × g for 30 min at 4 °C and the resulting supernatant was collected. The total protein concentration was determined using the Pierce BCA Protein Assay Kit (cat. no. 23 225, Thermo Fisher Scientific). The samples were denatured in a Protein Sample Loading Buffer (cat. no. LT101; Epizyme Biotech) at 95 °C and subjected to SDS‐polyacrylamide gel electrophoresis. Following electrophoresis, the proteins were transferred onto a nitrocellulose membrane (cat. no. HATF00010; Millipore) using a transfer buffer composed of 25 mM Tris, 190 mM glycine, and 20% methanol. […]

Another assay relates to primary astrocytes. The assay is described as follows: MQAE intracellular chloride measurement in primary astrocytes. The format is cell-based. To be noted: lacking KCC2 expression. The source says:
Since bilirubin‐induced activation of WNK1 kinase activity increases [Cl⁻]i in neurons, we sought to elucidate the downstream effector proteins of WNK1 that are involved in this process. Neuronal [Cl⁻]i is primarily regulated by the Cl⁻‐K⁺ symporter KCC2, with additional modulation by factors such as the Na⁺‐K⁺‐Cl⁻ co‐transporter NKCC1, GABAA receptors, and glycine receptors (GlyR), all of which contribute to [Cl⁻]i homeostasis.^[ [31] ^] To investigate the mechanism underlying bilirubin‐induced changes in [Cl⁻]i, we selectively targeted these proteins using pharmacological inhibitors (VU0463271 for KCC2, bumetanide for NKCC1, bicuculline for GABAA receptors, and strychnine for GlyR) and activated KCC2 using CLP257.^[ [35], [36] ^] […] The bilirubin‐induced effect on [Cl⁻]i was not observed in primary astrocytes (Figure S15A,B, Supporting Information) or the HEK 293T cell line (Figure S15C, Supporting Information), both of which lacked KCC2 expression (Figure S16A,B, Supporting Information), further confirming that the effects of bilirubin and WNK1 on [Cl⁻]i elevation are dependent on KCC2.
Intracellular chloride concentration ([Cl⁻]i) was measured using the MQAE fluorescent dye (Life Technologies) following established protocols (Zhang, Lee et al. 2015). […]

The target of the next assay is T1, WNK1 (191–491) (Homo sapiens, UniProt Q9H4A3).
T1 construct: different lengths of WNK1 truncations (1–491, 1–190, 191–491, 491–2382); expressed in transfected cells; host or cells: HEK293T
The assay is described as follows: MST, EGFP-tagged WNK1 truncation 191–491. To be noted: WNK1 191–491, 15 min, HEK293T lysates. The format is binding. The source says: To further validate these findings, we constructed GFP‐tagged fusion proteins with different lengths of WNK1 truncations (1–491, 1–190, 191–491, 491–2382) based on the WNK1 domains (Figure 3E) and analyzed their binding capacity with bilirubin using MST analysis.^[ [29] ^]
All WNK1 clones were derived from the original untagged hWNK1 cDNA (NM_018979), which was modified and subcloned into the pcDNA3.1, referred to as “full‐length WNK1” throughout this study. Truncated constructs, including 1–190aa, 191–491aa, 1–491aa, and 491–2382aa fragments, were generated by PCR using the full‐length template and subsequently ligated into linearized pcDNA3.1 vectors. WNK2 was obtained from Addgene Plasmid #24569, and WNK3 was obtained from Addgene Plasmid #81723. Both were subjected to base modifications and cloned into pcDNA3.1. The WNK4 clone was derived from hWNK4 cDNA (NM_032387.5), modified, and subcloned into the pCMV3‐C‐GFPSpark vector.
In HEK293T cells, proteins tagged with green fluorescent protein (GFP) were expressed. The cells were lysed using the M‐PER Mammalian Protein Extraction Reagent (cat. no. 78505, Thermo Scientific) supplemented with protease inhibitors. Lysates were centrifuged at 12000 × g for 15 min at 4 °C, and the supernatant containing proteins was diluted 10‐fold with 1x PBST. […]

The target in assay [2] is T2, point mutations of WNK1 (1–491) (Homo sapiens, UniProt Q9H4A3, F356A).
T2 construct: EGFP‐tagged point mutations of WNK1 (1–491) (15 min) in lysates; expressed in transfected cells; host or cells: HEK293T
Briefly: MST, EGFP-tagged point mutations of WNK1 (1–491). Type of assay: binding. The following applies: WNK1-N F356A. The source says:
(§1) Molecular docking identified several crucial amino acid residues within binding site 1 of the kinase domain for the binding of WNK1 and bilirubin. These residues included Thr301 (T301), Met304 (M304), Lys351 (K351), and Phe356 (F356) (Figure 3C). To investigate this further, we constructed WNK1‐N mutants by replacing these residues with alanine (A). […] This finding highlights the critical role of these residues in bilirubin binding.
(§2) In HEK293T cells, proteins tagged with green fluorescent protein (GFP) were expressed. The cells were lysed using the M‐PER Mammalian Protein Extraction Reagent (cat. no. 78505, Thermo Scientific) supplemented with protease inhibitors. Lysates were centrifuged at 12000 × g for 15 min at 4 °C, and the supernatant containing proteins was diluted 10‐fold with 1x PBST. Protein fluorescence intensity and solubility were assessed using capillary scanning at 60% LED power.
(§3) For the binding assay, the proteins were mixed with ligands and incubated for 15 min at room temperature before being loaded into Monolith NT.115 Capillaries or NT.115 Premium Capillaries (NanoTemper Technologies, MO‐K022 and MO‐K025). MST measurements were performed on a Monolith NT.115 instrument (NanoTemper Technologies) at 25 °C. Instrument parameters included no more than 80% excitation power and a medium MST power. Data analysis was conducted using the MO. Affinity Analysis software (NanoTemper Technologies).

The target of assay [3] is T3, point mutations of WNK1 (1–491) (Homo sapiens, UniProt Q9H4A3, M304A).
T3 construct: EGFP‐tagged point mutations of WNK1 (1–491) (15 min) in lysates; expressed in transfected cells; host or cells: HEK293T
Briefly: MST, EGFP-tagged point mutations of WNK1 (1–491). Type of assay: binding. To be noted: WNK1-N M304A.
Text: as §1, §2, §3

The target in assay [4] is T4, point mutations of WNK1 (1–491) (Homo sapiens, UniProt Q9H4A3, K351A).
T4 construct: EGFP‐tagged point mutations of WNK1 (1–491) (15 min) in lysates; expressed in transfected cells; host or cells: HEK293T
Briefly: MST, EGFP-tagged point mutations of WNK1 (1–491). Type of assay: binding. To be noted: WNK1-N K351A.
Text: as §1, §2, §3

What is called Kd is the constant that tells how readily two partners part at equilibrium. Low values mean tighter binding, high ones weaker binding.

T2 sequence (Q9H4A3 1-491 F356A): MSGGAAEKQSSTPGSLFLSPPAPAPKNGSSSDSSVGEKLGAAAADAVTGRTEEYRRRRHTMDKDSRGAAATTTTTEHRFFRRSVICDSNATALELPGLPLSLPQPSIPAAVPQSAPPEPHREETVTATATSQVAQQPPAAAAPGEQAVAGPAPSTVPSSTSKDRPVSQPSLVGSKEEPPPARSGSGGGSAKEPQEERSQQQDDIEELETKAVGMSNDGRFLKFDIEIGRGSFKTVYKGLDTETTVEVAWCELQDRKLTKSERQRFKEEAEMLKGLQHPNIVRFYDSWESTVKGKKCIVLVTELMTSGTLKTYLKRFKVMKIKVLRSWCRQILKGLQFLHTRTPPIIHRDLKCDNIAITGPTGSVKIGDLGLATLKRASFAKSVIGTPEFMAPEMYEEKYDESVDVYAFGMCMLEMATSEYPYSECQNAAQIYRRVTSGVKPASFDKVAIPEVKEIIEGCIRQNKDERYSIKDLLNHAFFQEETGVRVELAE
T1 sequence (Q9H4A3 191-491): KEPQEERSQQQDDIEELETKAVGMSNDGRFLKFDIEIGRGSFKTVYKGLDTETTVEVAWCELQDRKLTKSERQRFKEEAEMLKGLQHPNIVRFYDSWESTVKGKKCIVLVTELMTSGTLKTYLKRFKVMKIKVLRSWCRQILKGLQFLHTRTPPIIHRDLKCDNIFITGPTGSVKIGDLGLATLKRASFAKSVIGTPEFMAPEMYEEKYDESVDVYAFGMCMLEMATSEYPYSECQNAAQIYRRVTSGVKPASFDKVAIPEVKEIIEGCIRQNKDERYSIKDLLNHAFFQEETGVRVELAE
T3 sequence (Q9H4A3 1-491 M304A): as the sequence (Q9H4A3 1-491 F356A) above, with M304A, A356F counted along it
T4 sequence (Q9H4A3 1-491 K351A): as the sequence (Q9H4A3 1-491 F356A) above, with K351A, A356F counted along it

For `C=CC1=C(C)/C(=C/c2[nH]c(Cc3[nH]c(/C=C4\NC(=O)C(C)=C4C=C)c(C)c3CCC(=O)O)c(CCC(=O)O)c2C)NC1=O` [bilirubin, Bilirubin], in assay [1], the “WNK1 phosphorylation at Thr58 (Thr60 in humans)” value is listed as “substantial reduction”. Further, the “bilirubin-induced effect on [Cl−]i” value in the assay with primary astrocytes is listed as “not observed”. This compound yielded a Kd at WNK1 (191–491) of 28 nM. In assay [2], the “binding to F356A mutant” value is reported as “reduced binding affinity”. The “binding to M304A mutant” value in assay [3] was “reduced binding affinity”. In assay [4], the “binding to K351A mutant” value is given as “reduced binding affinity”.
